Results taken from US7425549B2, “Drug for the treatment of osteonecrosis and for the management of patients at risk of developing osteonecrosis” (The Royal Alexandra Hospital for Children, priority 2001, dated 2008).

System: traumatic osteonecrosis (femoral head)
Assay: Model of traumatic osteonecrosis of the femoral head in rats, six weeks after operation
Type: in vivo, Wistar rats
Conditions: for BMC / BMD: femoral head, DEXA; for XR Head Area (% Contra): operated femoral head, six weeks
Text: A model of traumatic osteonecrosis was utilised in 24 female 14-week-old Wistar rats. The animals were followed for six weeks after an operation designed to disrupt the blood supply to the femoral head. The six week time point was chosen as a time point when femoral head collapse is known to have occurred in this model ^1. Animal ethics approval was received.
Rats were randomised in lots of 4 into three groups according to the schedule below. Controls receive only saline (S) injections via a subcutaneous route. Post-treated animals received saline only pre-operatively, but zoledronic acid (ZA) (Novartis) 0.1 mg/kg, from commercial stock, was administered by subcutaneous injection post-operatively at 1 and 4 weeks. Pre and Post-treated animals received zoledronic acid 0.1 mg/kg at all three time points.
The same operation was performed on each rat at time zero. All animals were weighed accurately before anaesthesia. Animals were kept warm during surgery and recovery. Anaesthesia was induced with a mixture of Ketamine 75 mg/kg and Xylazine 10 mg/kg. Drugs were mixed in the same syringe just prior to administration and given 0.2 mL per 100 g BW IM. Induction occurred within 5-10 minutes.
After sterile preparation and shaving of the right lower extremity, an open approach was made to the hip joint. The capsule was opened, and the right femoral head was dislocated from the acetabulum. The ligamentum teres divided, disrupting any blood supply from that source. The entire femoral neck was denuded of soft tissue by polishing with a vicryl suture. This disrupted the lateral epiphyseal artery and any other vessels supplying the head via the femoral neck.
Dual fluorescent labels were applied at weeks 4 and 5: at week 4 demeclocycline 30 mg/kg was administered intraperitoneally, and at week 5 calcein 20 mg/kg was administered intraperitoneally. One hour prior to culling 70 MBq Tc99 MDP was administered subcutaneously to allow bone scintigraphy to be performed on harvested specimens.
After culling, right and left proximal femora were harvested and fixed in 4% paraformaldehyde. Radiographs were taken in pairs on high quality film with a Faxitron Shielded Cabinet X-Ray System (Hewlett Packard, McMinnville, Oreg. X-ray images were digitised and analysed using Bioquant image analysis system (R&M Biometrics Inc., Nashville, Tenn.) connected to a digitizing tablet (GTCO CalComp, Inc., Columbia, Md.). Bone area, height and width of the femoral head were recorded and compared to the contralateral side. Scintigraphy scans were taken using 4 mm aperture pinholes. BMD and BMC were measured with a pDEXA Sabre scanner (Norland, Ft Atkinson Wis.).
Specimens were resin embedded and sectioned undecalcified. Coronal sections (6 microns) were cut through the femoral head. Sections were stained with von Kossa to assess trabecular bone volume and structure. Fluorescent microscopy was used on unstained sections to image the fluorescent labels and assess bone formation.

[1] = Post-Treated: 0.1 mg/kg s.c. at 1 and 4 weeks post-operatively
[2] = Pre- and Post: 0.1 mg/kg s.c. at all three time points

For `O=P(O)(O)C(O)(Cn1ccnc1)P(=O)(O)O` [zoledronic acid, 1-hydroxy-2-[(1H-imidazol-1-yl)ethylidine] bisphosphonic acid], the BMC [1] was 0.012 g, the BMD [1] was 0.11 g/cm^2 and the “XR Head Area (% Contra)” value [1] was 79 % Contra. The BMC [2] was 0.015 g, the BMD [2] was 0.12 g/cm^2 and the “XR Head Area (% Contra)” value [2] was 85 % Contra.
